According to PubChem BioAssay AID1259407 (Chemical Carcinogenesis Research Information System (CCRIS), 2018):
The source made the active and inactive calls. The rule behind the calls is not given here.

System: CCRIS mutagenicity, Ames/micronucleus/aberration tests
Experiment: CCRIS mutagenicity studies
[1] = Test System: AMES SALMONELLA TYPHIMURIUM, Strain/Indicator: TA98, Metabolic Activation: NONE, Method: STANDARD PLATE
[2] = Test System: AMES SALMONELLA TYPHIMURIUM, Strain/Indicator: TA98, Metabolic Activation: RAT, LIVER, S-9, AROCLOR 1254, Method: STANDARD PLATE
[3] = Test System: AMES SALMONELLA TYPHIMURIUM, Strain/Indicator: TA100, Metabolic Activation: NONE, Method: STANDARD PLATE
[4] = Test System: AMES SALMONELLA TYPHIMURIUM, Strain/Indicator: TA100, Metabolic Activation: RAT, LIVER, S-9, AROCLOR 1254, Method: STANDARD PLATE
[5] = Test System: AMES SALMONELLA TYPHIMURIUM, Strain/Indicator: TA1535, Metabolic Activation: RAT, LIVER, S-9, AROCLOR 1254, Method: STANDARD PLATE
[6] = Test System: AMES SALMONELLA TYPHIMURIUM, Strain/Indicator: TA98, Metabolic Activation: RAT, LIVER, S-9, PHENOBARBITAL AND BETA-NAPHTHOFLAVONE, Method: PREINCUBATION
[7] = Test System: AMES SALMONELLA TYPHIMURIUM, Strain/Indicator: TA100, Metabolic Activation: RAT, LIVER, S-9, PHENOBARBITAL AND BETA-NAPHTHOFLAVONE, Method: PREINCUBATION
[8] = Test System: AMES SALMONELLA TYPHIMURIUM, Strain/Indicator: TA98, Metabolic Activation: NONE, Method: PREINCUBATION
[9] = Test System: AMES SALMONELLA TYPHIMURIUM, Strain/Indicator: TA100, Metabolic Activation: NONE, Method: PREINCUBATION
[10] = Test System: AMES SALMONELLA TYPHIMURIUM, Strain/Indicator: TA1535, Metabolic Activation: NONE, Method: PREINCUBATION
[11] = Test System: AMES SALMONELLA TYPHIMURIUM, Strain/Indicator: TA1537, Metabolic Activation: NONE, Method: PREINCUBATION

COc1cc(C=O)ccc1O
mutagenic call [1]: inactive; negative
mutagenic call [2]: inactive; negative
mutagenic call [3]: inactive; negative
mutagenic call [4]: inactive; negative
mutagenic call [5]: inactive; negative
mutagenic call (Test System: E. COLI, Strain/Indicator: CM561 LEXA, Metabolic Activation: NONE, Method: STANDARD PLATE): inactive; negative
mutagenic call (Test System: E. COLI, Strain/Indicator: CM611 UVRA/LEXA, Metabolic Activation: NONE, Method: STANDARD PLATE): inactive; negative
mutagenic call (Test System: E. COLI, Strain/Indicator: WP2 UVRA, Metabolic Activation: NONE, Method: STANDARD PLATE): inactive; negative

[CH3][Sn]([CH3])([CH3])[CH3]
mutagenic call (Test System: AMES SALMONELLA TYPHIMURIUM, Strain/Indicator: TA98, Metabolic Activation: NONE, Method: SUSPENSION/PLATE): inactive; negative
mutagenic call (Test System: AMES SALMONELLA TYPHIMURIUM, Strain/Indicator: TA100, Metabolic Activation: NONE, Method: SUSPENSION/PLATE): inactive; negative

COc1ccc2c(cc3c4c(cc5c(c42)OCO5)CCN3C)c1OC
mutagenic call [6]: active; positive
mutagenic call [7]: active; positive

O=[N+]([O-])c1c(O)cc2c3c(cccc13)-c1ccccc1-2
mutagenic call [1]: active; positive
mutagenic call [2]: active; positive

O=C(OCc1ccc(Cl)cc1Cl)c1cccc2cccnc12
mutagenic call [1]: inactive; negative
mutagenic call [2]: inactive; negative
mutagenic call [3]: inactive; negative
mutagenic call [4]: inactive; negative
mutagenic call (Test System: AMES SALMONELLA TYPHIMURIUM, Strain/Indicator: TA1535, Metabolic Activation: NONE, Method: STANDARD PLATE): inactive; negative
mutagenic call [5]: inactive; negative
mutagenic call (Test System: AMES SALMONELLA TYPHIMURIUM, Strain/Indicator: TA1537, Metabolic Activation: NONE, Method: STANDARD PLATE): inactive; negative
mutagenic call (Test System: AMES SALMONELLA TYPHIMURIUM, Strain/Indicator: TA1537, Metabolic Activation: RAT, LIVER, S-9, AROCLOR 1254, Method: STANDARD PLATE): inactive; negative

Cc1ccc(C)c2c1c1ccccc1n2C
mutagenic call [1]: inactive; negative
mutagenic call (Test System: AMES SALMONELLA TYPHIMURIUM, Strain/Indicator: TA98, Metabolic Activation: RAT LIVER S-9, AROCLOR 1254, Method: STANDARD PLATE): active; positive
mutagenic call [3]: inactive; negative
mutagenic call (Test System: AMES SALMONELLA TYPHIMURIUM, Strain/Indicator: TA100, Metabolic Activation: RAT LIVER S-9, AROCLOR 1254, Method: STANDARD PLATE): active; positive

CC(=O)O[C@H]1[C@H]2O[C@H]2C2=CC(=O)[C@]3(C[C@]2(C)[C@H]1C)O[C@]3(C)C=O
mutagenic call [8]: active; positive
mutagenic call [6]: inactive; negative
mutagenic call [9]: inactive; negative
mutagenic call (Test System: AMES SALMONELLA TYPHIMURIUM, Strain/Indicator: TA100, Metabolic Activation: RAT, LIVER, MICROSOMES, PHENOBARBITAL, Method: STANDARD PLATE): active; positive
mutagenic call [7]: inactive; negative
mutagenic call (Test System: AMES SALMONELLA TYPHIMURIUM, Strain/Indicator: TA100, Metabolic Activation: RAT, LIVER, S-9, PHENOBARBITAL, Method: PREINCUBATION): inactive; negative
mutagenic call [10]: inactive; negative
mutagenic call (Test System: AMES SALMONELLA TYPHIMURIUM, Strain/Indicator: TA1535, Metabolic Activation: RAT, LIVER, S-9, PHENOBARBITAL AND BETA-NAPHTHOFLAVONE, Method: PREINCUBATION): inactive; negative
mutagenic call [11]: inactive; negative
mutagenic call (Test System: AMES SALMONELLA TYPHIMURIUM, Strain/Indicator: TA1537, Metabolic Activation: RAT, LIVER, S-9, PHENOBARBITAL AND BETA-NAPHTHOFLAVONE, Method: PREINCUBATION): inactive; negative
mutagenic call (Test System: AMES SALMONELLA TYPHIMURIUM, Strain/Indicator: TA1538, Metabolic Activation: NONE, Method: PREINCUBATION): inactive; negative
mutagenic call (Test System: AMES SALMONELLA TYPHIMURIUM, Strain/Indicator: TA1538, Metabolic Activation: RAT, LIVER, S-9, PHENOBARBITAL AND BETA-NAPHTHOFLAVONE, Method: PREINCUBATION): inactive; negative

CN(C)c1cccc(O)c1
mutagenic call (Test System: AMES SALMONELLA TYPHIMURIUM, Strain/Indicator: TA97, Metabolic Activation: HAMSTER, LIVER, S-9, AROCLOR 1254 (10%), Method: PREINCUBATION): active; positive
mutagenic call (Test System: AMES SALMONELLA TYPHIMURIUM, Strain/Indicator: TA97, Metabolic Activation: NONE, Method: PREINCUBATION): inactive; negative
mutagenic call (Test System: AMES SALMONELLA TYPHIMURIUM, Strain/Indicator: TA97, Metabolic Activation: RAT, LIVER, S-9, AROCLOR 1254 (10%), Method: PREINCUBATION): active; positive
mutagenic call (Test System: AMES SALMONELLA TYPHIMURIUM, Strain/Indicator: TA98, Metabolic Activation: HAMSTER, LIVER, S-9, AROCLOR 1254 (10%), Method: PREINCUBATION): active; positive
mutagenic call [8]: inactive; negative
mutagenic call (Test System: AMES SALMONELLA TYPHIMURIUM, Strain/Indicator: TA98, Metabolic Activation: RAT, LIVER, S-9, AROCLOR 1254 (10%), Method: PREINCUBATION): active; positive
mutagenic call (Test System: AMES SALMONELLA TYPHIMURIUM, Strain/Indicator: TA100, Metabolic Activation: HAMSTER, LIVER, S-9, AROCLOR 1254 (10%), Method: PREINCUBATION): active; positive
mutagenic call [9]: inactive; negative
mutagenic call (Test System: AMES SALMONELLA TYPHIMURIUM, Strain/Indicator: TA100, Metabolic Activation: RAT, LIVER, S-9, AROCLOR 1254 (10%), Method: PREINCUBATION): active; positive
mutagenic call (Test System: AMES SALMONELLA TYPHIMURIUM, Strain/Indicator: TA1535, Metabolic Activation: HAMSTER, LIVER, S-9, AROCLOR 1254 (10%), Method: PREINCUBATION): inactive; negative
mutagenic call [10]: inactive; negative
mutagenic call (Test System: AMES SALMONELLA TYPHIMURIUM, Strain/Indicator: TA1535, Metabolic Activation: RAT, LIVER, S-9, AROCLOR 1254 (10%), Method: PREINCUBATION): inactive; negative

CCCCOc1cc(Br)ccc1C(=O)NOC(C)=O
mutagenic call [3]: active; positive
mutagenic call (Test System: AMES SALMONELLA TYPHIMURIUM, Strain/Indicator: TA100, Metabolic Activation: RAT, S-9, AROCLOR, Method: STANDARD PLATE): active; positive

[Li+]
mutagenic call (Test System: AMES SALMONELLA TYPHIMURIUM, Strain/Indicator: TA98, Metabolic Activation: HAMSTER, LIVER, S-9, AROCLOR 1254, Method: PREINCUBATION): inactive; negative
mutagenic call [8]: inactive; negative
mutagenic call (Test System: AMES SALMONELLA TYPHIMURIUM, Strain/Indicator: TA98, Metabolic Activation: RAT, LIVER, S-9, AROCLOR 1254, Method: PREINCUBATION): inactive; negative
mutagenic call (Test System: AMES SALMONELLA TYPHIMURIUM, Strain/Indicator: TA100, Metabolic Activation: HAMSTER, LIVER, S-9, AROCLOR 1254, Method: PREINCUBATION): inactive; negative
mutagenic call [9]: inactive; negative
mutagenic call (Test System: AMES SALMONELLA TYPHIMURIUM, Strain/Indicator: TA100, Metabolic Activation: RAT, LIVER, S-9, AROCLOR 1254, Method: PREINCUBATION): inactive; negative
mutagenic call (Test System: AMES SALMONELLA TYPHIMURIUM, Strain/Indicator: TA1535, Metabolic Activation: HAMSTER, LIVER, S-9, AROCLOR 1254, Method: PREINCUBATION): inactive; negative
mutagenic call [10]: inactive; negative
mutagenic call (Test System: AMES SALMONELLA TYPHIMURIUM, Strain/Indicator: TA1535, Metabolic Activation: RAT, LIVER, S-9, AROCLOR 1254, Method: PREINCUBATION): inactive; negative
mutagenic call (Test System: AMES SALMONELLA TYPHIMURIUM, Strain/Indicator: TA1537, Metabolic Activation: HAMSTER, LIVER, S-9, AROCLOR 1254, Method: PREINCUBATION): inactive; negative
mutagenic call [11]: inactive; negative
mutagenic call (Test System: AMES SALMONELLA TYPHIMURIUM, Strain/Indicator: TA1537, Metabolic Activation: RAT, LIVER, S-9, AROCLOR 1254, Method: PREINCUBATION): inactive; negative
mutagenic call (Test System: E. COLI, Strain/Indicator: WP2 UVRA, Metabolic Activation: NONE, Method: SPOT TEST): inactive; negative
